Reference: EPA's ToxValDB 9.5 (doi:10.2903/j.efsa.2017.4790)

Key:
[1] = test system: Apis mellifera; conditions: acute, mortality
[2] = test system: Colinus virginianus; conditions: acute, oral, mortality
[3] = test system: Rattus norvegicus; conditions: for LD50: acute, mortality
[4] = test system: Folsomia candida; conditions: chronic/long-term; mortality
[5] = test system: Anas platyrhynchos
[6] = test system: Oncorhynchus mykiss; conditions: chronic/long-term; duration: 21 days; behavior
[7] = test system: Canidae; conditions: chronic; duration: 1 years; oral; Dog Other; organ weight
[8] = test system: Daphnia magna; conditions: chronic/long-term; duration: 21 days; reproduction

CCCC(=O)Oc1c(Br)cc(C#N)cc1Br [Bromoxynil butyrate]
LD50 ([1]; dermal): 199 µg/piece
LD50 ([1]; oral, unspecified): 76.4 µg/piece
LD50 ([2]; diet): > 190 mg/kg-day
LD50 [2]: 420 mg/kg-day
LD50 ([3]; M/F): 116 mg/kg-day
NOEC [4]: 125 mg/kg
NOAEL ([5]; chronic/long-term): 15.9 mg/kg-day

N#Cc1cc(Br)c(O)c(Br)c1 [Bromoxynil]
NOEC [6]: 2 mg/L
NOAEL [7]: 0.3 mg/kg-day
NOAEL ([3]; developmental, development): 4 mg/kg-day
NOAEL ([3]; reproduction developmental, body weight): 3.39 mg/kg-day
NOEC [4]: 56 mg/kg
NOAEL ([5]; reproductive): 10.9 mg/kg-day
NOEC [8]: 3.1 mg/L

CCCCCCC(=O)Oc1c(Br)cc(C#N)cc1Br [Bromoxynil heptanoate]
LD50 ([1]; dermal): > 201 µg/piece
LD50 ([1]; oral, unspecified): > 201 µg/piece
LD50 ([2]; diet): 1900 mg/kg-day
LD50 [2]: 379 mg/kg-day
NOAEL [7]: 0.3 mg/kg-day
LD50 ([3]; F): 292 mg/kg-day
NOAEL ([3]; developmental, development): 4 mg/kg-day
NOEC [4]: 70.5 mg/kg
NOAEL ([5]; reproductive): 15.9 mg/kg-day
